Patent US7666897B2, “Analogs of indole-3-carbinol metabolites as chemotherapeutic and chemopreventive agents” (SRI International, priority 2002, dated 2010)
Where two headings read alike, the source gives them in different places.

How the values were obtained:
MCF-7 (ER+) = experiment: Growth inhibition assay (tetrazolium blue), MCF-7 (ER+) breast cancer cells; type: cell-based; conditions: for IC50: 7 days incubation, tetrazolium blue; for inhibition at 1 µM: MCF7
Procedure: (§1) Growth inhibition assays were conducted using DIM, LT, and some of the novel compounds of the invention on several breast cancer cell lines. The cell lines studied were MCF-7 (ER^+), MDA-MB-231 (ER^−), and a tamoxifen-resistant strain of MCF-7 (ER^+). The growth assays were conducted according to the method of Tiwari et al. (Tiwari, R. K., J Natl Cancer Inst 86:126-131, 1994). For growth Inhibition Assay, cells were grown in multi-well culture plates. Experiments were performed in quadruplicate. MCF-7 (ER^+) cells were grown in special medium containing 5% animal serum that had been treated to remove endogenous estrogens. After the plates were incubated at 37° C. for 24 hours, to each well was added test compound at various concentrations, with or without the estrogen 17β-estradiol (E2). The cells were then incubated for 7 days, with medium and test solutions replaced every other day. On Day 8, after the medium was removed and replaced with fresh medium without test solutions, the tetrazolium blue test was performed to determine the percentage of viable cells (viable cells convert the colorless tetrazolium to formazan, which is blue). At 4 hours after tetrazolium blue was added, the reaction was stopped and the formazan concentration was measured by detection of light absorbance at 575 nm in an enzyme linked immunosorbent assay (ELISA) plate reader. The percent growth inhibition was determined by dividing the ELISA results for samples containing test compounds by the results for control samples. […] (ER^−) cells were maintained and tested under the same conditions as described above, except that no estrogen was added.

MDA-MB-231 (ER−) = experiment: Growth inhibition assay (tetrazolium blue), MDA-MB-231 (ER−) breast cancer cells; type: cell-based, human; conditions: for IC50: no estrogen added
Procedure: as §1

[1] = tested on: Tamoxifen-resistant MCF-7; experiment: Growth inhibition assay (tetrazolium blue), tamoxifen-resistant MCF-7 cells; type: cell-based
Procedure: as §1

[2] = tested on: Ishikawa cells (endometrial carcinoma cells); experiment: Ishikawa assay (alkaline phosphatase induction), estrogenic and antiestrogenic activity; type: cell-based, human; conditions: AlkP induction, 72 hours; for Ishikawa Assay Anti-Estrogenic Activity at 10 μM: unit assumed
Procedure: Estrogenic and antiestrogenic activities were determined using the Ishikawa assay (Littlefield, B. A., Endocrinology 127: 2757-2762, 1990). The activities were measured at 10 μM concentrations of the test compounds. Human Ishikawa cells (endometrial carcinoma cells) are very sensitive to estrogens, and compounds with estrogenic activity induce alkaline phosphatase (AlkP) enzyme activity in these cells when administered at levels as low as 10^−12 M. Ishikawa cells were grown in growth medium supplemented with glutamine, sodium pyruvate, and 10% animal serum. At 24 hours before the experiment, the medium was replaced with medium free of phenol red and containing 5% animal serum that had been treated to remove endogenous estrogens. On Day 1, the cells were harvested and plated in fresh phenol red-free medium, and test solutions were added with or without the estrogen 17β-estradiol. After the treated cells were incubated for 72 hours, the AlkP assay was used to determine the estrogenic and antiestrogenic activity of the test compounds. Like the tetrazolium blue assay described above, this assay involves calorimetric detection using an ELISA plate reader, but here the indicator dye is yellow.

LNCaP = experiment: Growth inhibition assay (MTT), LNCaP prostate cancer cells; type: cell-based; conditions: Day 7, MTT
Procedure: (§2) Assays were conducted on compound 46 (SR13654) to determine its growth inhibitory effect on three prostate cancer cell lines, LNCaP, DU-145 and PC-3. The methods were described briefly herein. LNCaP and PC-3 cells will be maintained in […] medium, and DU-145 cells in Eaglets minimal essential medium (MEM) medium supplemented with nonessential amino acids, 2 mM glutamine and 1 mM pyruvate. All media will contain 10% fetal bovine serum (FCS). To screen compounds for their effect on cell proliferation, cells are seeded in 96-well plates at 2000 cells/well in 200 μL of medium. After cells are allowed to attach for 24 h, test compound is added to each well in 10 μL aliquots and control wells receive vehicle only. Medium and test solutions are replaced every other day. On Day 7, viable cells are measured with the MTT assay, using the protocol provided by the manufacturer (Promega, Madison, Wis.).

DU-145 = experiment: Growth inhibition assay (MTT), DU-145 prostate cancer cells; type: cell-based; conditions: Day 7, MTT
Procedure: as §2

PC-3 = experiment: Growth inhibition assay (MTT), PC-3 prostate cancer cells; type: cell-based; conditions: Day 7, MTT
Procedure: as §2

NIH-OVCAR-3 = experiment: Growth inhibition assay (MTT), NIH-OVCAR-3 ovarian cancer cells; type: cell-based; conditions: Homo sapiens, OVCAR-3, 168 h; Day 7, MTT
Procedure: (§3) Assays were conducted on compound 74 (SR13668) to determine its growth inhibitory effect on two ovarian cancer cell lines, NIH-OVCAR-3 and SKOV-3. OVCAR-3 cells are routinely maintained in RPMI-1640 medium supplemented with 2 mM glutamine (GLN) and 10% fetal calf serum (FCS), and SKOV-3 cells in McCoy's 5A medium supplemented with 2 mM GLN and 10% FCS. Both cell lines are fed with fresh medium every other day and passaged every 6-7 days. To conduct the growth inhibition assay, cells from either cell line are seeded in 96-well plates at 2000 cells/well in 200 μL of medium. After cells are allowed to attach for 24 h, test compounds dissolved in dimethyl sulfoxide (DMSO) and further diluted with medium are added to each well in 10-μL aliquots. The final DMSO concentration is kept at 0.05%. Control wells receive vehicle only. Media and test solutions are replaced every other day. On Day 7, viable cells are measured with the MTT (tetrazolium blue) assay, using an MTT kit.

SKOV-3 = experiment: Growth inhibition assay (MTT), SKOV-3 ovarian cancer cells; type: cell-based; conditions: Homo sapiens, SK-OV-3, 168 h; Day 7, MTT
Procedure: as §3

[3] = tested on: MDA-MB-231 human carcinoma cells; experiment: Boyden Chamber Invasion Assay; type: cell-based; conditions: 5 μM, 16 h end-point
Procedure: MDA-MB-231 human carcinoma cells was used for this Boyden Chamber Invasion Assay (Meng et al. (2000) J. Mol. Med. 78, 155-165; Meng et al. (2000) Breast Cancer Res. Treat. 63, 147-152). Briefly, to each well of a 24-well Biocoat invasion chamber plate, 0.6 mL of appropriate medium containing 10% FCSH 6 μg/ml Fibronectin is added, followed by gentle placement of a CCI in each well. To each CCI is added freshly harvested cells suspended in 200 μL of medium containing either the test compound or vehicle alone. The preparations are incubated at 37° C. for 16 h, and then the CCI is removed from each well, fixed for 10 min with 1 ml of 3.7% paraformaldehyde in PBS, and stained for 10 min in 1 mL of Wright-Giemsa stain solution. The stained CCI is placed on a glass microscope slide and the upper surface cells are carefully removed by scraping with a cotton swab. The cells on the lower surface are counted in a bright field microscope. The inhibitory effect of a test compound is calculated by dividing the number of cells in a treated preparation by that of the vehicle control and expressed as a percentage.

[4] = tested on: MDA-MB-231 human carcinoma cells; experiment: Parallel cell growth inhibition assay to the invasion study; type: cell-based; conditions: 16 h end-point
[5] = tested on: MCF-7 breast cancer xenografts; experiment: ER+ MCF-7 breast cancer xenografts in nude mice; type: in vivo, female Balb/c nude mice; conditions: oral gavage daily, MCF-7 xenograft
Procedure: To study the in vivo activity of novel compound 74 against estrogen-dependent breast cancer, the compound was administered to nude mice that had been implanted with […] MCF-7 breast cancer cells. To start the experiment, female Balb/c nude mice were implanted subcutaneously (s.c.) with estrogen pellets two days prior to inoculation of cancer cells, for stimulation of cell growth. MCF-7 cells were then implanted s.c. in the flanks, using an inoculum of 5×10^6 cells in a medium-Matrigel mixture (1:1, v/v). When the mean tumor volume reached approximately 100 mm^3, the test compound in 0.5% hydroxypropylcellulose in sterile saline solution (or vehicle alone for controls) was administered orally by gavage daily. There were 7 mice in the experimental and control groups. Mice were examined daily for tumor growth, and tumors and body weight were measured twice weekly. The tumor volume is 4/3πr1^2r2, where r1 and r2 are the short radius and long radius, respectively. On Day 27, all the mice were sacrificed, and the major organs examined by a pathologist.

[6] = tested on: MDA-MB-231 human breast cancer xenografts; experiment: (ER−) MDA-MB-231 breast cancer xenografts in nude mice; type: in vivo, female Balb/c nude mice; conditions: 10, 30, and 100 mg/kg daily oral gavage, MDA-MB-231 xenograft
Procedure: As a further test of in vivo efficacy against estrogen-independent breast cancer, the novel compound 74 was administered to nude mice that had been implanted with (ER^−) MDA-MB-231 human breast cancer xenografts. To start, female Balb/c nude mice were implanted subcutaneously (s.c.) with MDA-MB-231 cells, using an inoculum of 5×10^6 cells in a medium-Matrigel mixture (1:1, v/v). When the mean tumor volume reached approximately 70 mm^3, compound was administered daily at three dose levels (10, 30, and 100 mg/kg) via oral gavage. The methods used in the study were essentially the similar to those described in Example 29 herein.

[7] = tested on: SKOV-3 human ovarian cancer xenografts; experiment: SKOV-3 human ovarian cancer xenografts in nude mice; type: in vivo, female Balb/c nude mice; conditions: 30 mg/kg orally daily from Day 0, SKOV-3 xenograft
Procedure: To start, female Balb/c nude mice were implanted subcutaneously (s.c.) with SKOV-3 cells in the flanks, using an inoculum of 5×10^6 cells in a medium-Matrigel mixture (1:1, v/v), and compound 74 (30 mg/kg) was orally administered daily via gavage from Day 0. Tumor volume and body weight were measured twice weekly.

SMILES	MCF-7 (ER+) % Growth Inhibition at 1 μM (MCF-7 (ER+)) [%]	IC50 (MCF-7 (ER+)) [nM]	MDA-MB-231 (ER−) % Growth Inhibition at 10 μM (MDA-MB-231 (ER−)) [%]	IC50 (MDA-MB-231 (ER−)) [nM]	IC50 [1] [nM]	inhibition at 1 µM (MCF-7 (ER+); Homo sapiens) [%]	IC50 (MCF-7 (ER+); Homo sapiens, MCF7, 168 h) [nM]	inhibition at 10 µM (MDA-MB-231 (ER−); Homo sapiens, MDA-MB-231) [%]	IC50 (MDA-MB-231 (ER−); Homo sapiens, MDA-MB-231) [nM]	IC50 ([1]; Tamoxifen-resistant MCF7) [nM]	Ishikawa Assay Estrogenic Activity at 10 μM [2]	Ishikawa Assay Anti-Estrogenic Activity at 10 μM [2] [%]	other results
c1ccc2c(Cc3c[nH]c4ccccc34)c[nH]c2c1 [DIM, 3,3′-diindolylmethane, reference compound]	3	5500	20	31000	> 10000	–	–	–	–	–	–	–	–
CCOC(=O)Oc1c2[nH]c3ccc(C(=O)OCC)cc3c2cc2c1[nH]c1ccc(C(=O)OCC)cc12 [Compound 63, 2,10-Dicarbethoxy-6-ethoxycarbonyloxy-5,7-dihydro-indolo[2,3-b]carbazole]	–	–	–	–	–	66	1400	94	2000	3000	0	100	–
CCOC(=O)c1ccc2[nH]c(Cc3[nH]c4ccc(C(=O)OCC)cc4c3C)c(C)c2c1 [Compound 46, 5,5′-Dicarbethoxy-3,3′-dimethyl-2,2′-diindolylmethane]	100	31	81	6900	460	–	–	–	–	–	0	94	IC50 (LNCaP): 4700 nM; IC50 (DU-145): 480 nM; IC50 (PC-3): 200 nM
CCOC(=O)c1ccc2[nH]c3c(OC)c4[nH]c5ccc(C(=O)OCC)cc5c4cc3c2c1 [Compound 74, 2,10-Dicarbethoxy-6-methoxy-5,7-dihydro-indolo[2,3-b]carbazole]	–	–	–	–	–	100	200	69	7800	930	0	80	IC50 (NIH-OVCAR-3): 5100 nM; IC50 (SKOV-3): 4000 nM; reduction in the invasive capacity of MDA-MB-231 cells [3]: 90%; inhibition at 5 µM [4]: 22%; body weights of the treated mice [5]: unaffected; tumor volume versus control mice ([5]; FIG. 1): less than half of those in the control mice; body weights of the treated mice [6]: unaffected; tumor volume versus control mice ([6]; FIG. 2): less than half of those in the control mice; body weights of the treated mice [7]: unaffected; tumor volume versus control mice ([7]; FIG. 3): significantly less than those in the control mice
c1ccc2c(Cc3[nH]c4ccccc4c3Cc3c[nH]c4ccccc34)c[nH]c2c1 [LT, 2-(indol-3-ylmethyl) 3,3′-diindolyl-methane, reference compound]	19	1800	34	13000	600	–	–	–	–	–	0	100	–
CCOC(=O)Oc1c2[nH]c3ccccc3c2cc2c1[nH]c1ccccc12 [Compound 58, 6-Ethoxycarbonyloxy-5,7-dihydro-indolo[2,3-b]carbazole]	–	–	–	–	–	100	18	97	2100	56	0	100	–
